Patent US20230174485A1, “LIPOXYGENASE INHIBITORS” (SRI International, priority 2020, published 2023)
“And” between values parts separate entries of the source, which are not always exact repeats. Identical values can stand only once. Like-named read-outs stand apart in the source and are kept apart here.

Tests used:
Assay type in all cases: biochemical
[1] = molecular target: T1, recombinant 12-LOX enzyme (Homo sapiens, UniProt P18054); test: 12-LOX fluorescent assay; conditions: several values in one cell = repeat determinations
T1 sequence (P18054 1-663): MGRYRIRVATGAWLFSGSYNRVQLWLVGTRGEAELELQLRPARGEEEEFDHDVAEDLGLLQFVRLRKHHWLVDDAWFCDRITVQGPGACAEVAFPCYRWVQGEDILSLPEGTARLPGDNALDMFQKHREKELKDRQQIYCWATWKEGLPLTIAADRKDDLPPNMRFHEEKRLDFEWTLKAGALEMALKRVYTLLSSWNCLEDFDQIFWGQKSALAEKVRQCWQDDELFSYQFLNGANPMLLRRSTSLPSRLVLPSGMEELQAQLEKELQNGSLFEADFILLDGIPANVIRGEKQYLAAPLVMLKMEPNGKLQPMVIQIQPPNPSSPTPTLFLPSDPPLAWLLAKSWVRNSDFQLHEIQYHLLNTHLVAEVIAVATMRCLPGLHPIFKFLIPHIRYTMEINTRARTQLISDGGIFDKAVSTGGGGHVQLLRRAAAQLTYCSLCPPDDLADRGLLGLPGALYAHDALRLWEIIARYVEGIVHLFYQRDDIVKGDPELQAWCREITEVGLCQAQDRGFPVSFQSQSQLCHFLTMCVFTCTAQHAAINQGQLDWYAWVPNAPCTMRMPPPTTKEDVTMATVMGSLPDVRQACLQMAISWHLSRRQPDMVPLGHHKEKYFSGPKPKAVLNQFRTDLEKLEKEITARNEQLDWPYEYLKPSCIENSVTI
Protocol: (§1) 12-LOX/15-LOX Fluorescent Assay
(§2) The enzyme assay (100 ul) contained 50 mM Tris, pH 7.5, 0.05% Tween-20, 20 μM AA/LA, 1 μM DHR123, and 100 nM recombinant 12-LOX enzyme/50 nM recombinant 15-LOX enzyme. Inhibitors (dissolved in DMSO) were plated at 1 μL into 96-well assay microplates followed by a 40 μL addition of a solution containing 12-LOX/15-LOX enzyme. Enzyme was pre-incubated with compounds for 15 mins. The assay was initiated by the addition of a 40 μL substrate solution containing AA/LA, and 20 μL addition of a solution containing DHR123. Enzymatic reaction proceeded for 30 min with kinetic reading at 500 nm excitation & 536 nm emission in SpectraMax Paradigm (MolecularDevice). Percent inhibition was calculated for each compound dose for IC50 curve fitting using 4 Parameter Logistic Model or Sigmoidal Dose-Response Model.

[2] = molecular target: T2, recombinant 5-LOX (Homo sapiens, UniProt P09917); test: 5-LOX fluorescent assay; conditions: several values in one cell = repeat determinations; read-out: IC50 (μM) values for in vitro lipoxygenase inhibition, 5-LOX
T2 sequence (P09917 1-674): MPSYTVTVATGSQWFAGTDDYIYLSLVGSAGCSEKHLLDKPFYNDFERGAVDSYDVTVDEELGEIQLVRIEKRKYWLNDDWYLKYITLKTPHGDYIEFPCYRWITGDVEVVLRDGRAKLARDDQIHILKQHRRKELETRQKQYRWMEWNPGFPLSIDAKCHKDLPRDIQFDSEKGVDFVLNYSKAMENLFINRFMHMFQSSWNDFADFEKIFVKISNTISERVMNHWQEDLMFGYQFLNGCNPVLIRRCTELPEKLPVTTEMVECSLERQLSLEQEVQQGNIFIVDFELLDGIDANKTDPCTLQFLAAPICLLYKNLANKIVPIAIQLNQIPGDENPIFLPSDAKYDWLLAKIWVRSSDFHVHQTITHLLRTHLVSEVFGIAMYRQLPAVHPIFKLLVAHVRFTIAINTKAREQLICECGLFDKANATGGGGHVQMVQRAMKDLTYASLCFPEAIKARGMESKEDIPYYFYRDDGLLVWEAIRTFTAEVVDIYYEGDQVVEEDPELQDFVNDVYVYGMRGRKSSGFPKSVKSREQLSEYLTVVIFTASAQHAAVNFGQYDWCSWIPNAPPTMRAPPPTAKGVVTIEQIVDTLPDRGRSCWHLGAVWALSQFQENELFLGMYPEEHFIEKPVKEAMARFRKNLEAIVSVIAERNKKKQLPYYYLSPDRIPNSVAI
Protocol: 5-LOX FI assay Fluorescent Assay
The enzyme assay (100 μL) contained 50 mM Tris, pH 7.5, 0.1 mM EDTA, 0.3 mM CaCl2, 20 μM AA, 100 μM ATP, 1 μM DHR123, and recombinant 5-LOX cell lysate (0.5 μL/100 μL). Inhibitors (dissolved in DMSO) were plated at 1 μL into 96-well assay microplates followed by a 40 μL addition of a solution containing 5-LOX enzyme. Enzyme was pre-incubated with compounds for 15 mins. The assay was initiated by the addition of a 40 μL substrate solution containing AA and ATP, and 20 μL addition of a solution containing DHR123. Enzymatic reaction proceeded for 30 min with kinetic reading at 500 nm excitation & 536 nm emission in SpectraMax Paradigm (MolecularDevice). Percent inhibition was calculated for each compound dose for IC50 curve fitting using 4 Parameter Logistic Model or Sigmoidal Dose-Response Model.

[3] = molecular target: T3, recombinant 15-LOX enzyme (Homo sapiens, UniProt P16050); test: 15-LOX fluorescent assay; conditions: several values in one cell = repeat determinations
T3 sequence (P16050 1-662): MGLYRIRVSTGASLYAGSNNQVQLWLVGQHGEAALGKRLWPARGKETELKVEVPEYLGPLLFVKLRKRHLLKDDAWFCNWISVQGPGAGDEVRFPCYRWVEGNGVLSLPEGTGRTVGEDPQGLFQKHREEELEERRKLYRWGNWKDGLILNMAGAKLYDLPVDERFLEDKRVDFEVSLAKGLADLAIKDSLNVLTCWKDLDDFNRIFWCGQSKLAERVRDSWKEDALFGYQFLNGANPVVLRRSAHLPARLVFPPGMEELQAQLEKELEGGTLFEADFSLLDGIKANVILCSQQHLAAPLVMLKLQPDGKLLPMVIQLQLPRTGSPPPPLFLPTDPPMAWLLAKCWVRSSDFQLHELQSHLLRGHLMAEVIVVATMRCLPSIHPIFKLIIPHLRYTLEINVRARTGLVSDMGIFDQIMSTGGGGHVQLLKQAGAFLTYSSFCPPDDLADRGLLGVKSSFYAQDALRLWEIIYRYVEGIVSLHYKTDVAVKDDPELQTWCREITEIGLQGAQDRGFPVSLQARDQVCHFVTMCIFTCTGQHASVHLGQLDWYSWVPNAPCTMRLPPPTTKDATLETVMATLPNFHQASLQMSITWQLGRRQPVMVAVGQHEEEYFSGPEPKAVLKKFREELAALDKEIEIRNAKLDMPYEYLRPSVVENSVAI
Protocol: as §1, §2

[4] = read-out: IC50 (μM) values for in vitro lipoxygenase inhibition, 12-LOX
[5] = read-out: IC50 (μM) values for in vitro lipoxygenase inhibition, 15-LOX
[6] = IC50 (μM) values for in vitro lipoxygenase inhibition, 15-LOX

IC50 [1, 4] | IC50 [2] | IC50 [3, 5] | IC50 [3, 6] | IC50 ([1]; IC50 (μM) values for in vitro lipoxygenase inhibition, 12-LOX) | Structure (SMILES)
0.83 µM | 1.04 µM | 0.71 µM |  |  | CN(C)CCOc1cc2c(cc1CNc1ccccc1)[nH]c1ccccc12 [SS20308-0119-01, N-((3-(2-(dimethylamino)ethoxy)-9H-carbazol-2-yl)methyl)aniline]
1.16 µM | 0.53 µM | 0.86 µM |  |  | CN(C)CCOc1c2[nH]c(-c3ccccc3)nc2c(F)c2c1[nH]c1ccccc12 [SS20308-0121-01, 2-(10-fluoro-2-phenyl-3,5-dihydroimidazo[4,5-b]carbazol-4-yloxy)-N,N-dimethylethanamine]
0.87 µM | 1.02 µM |  | 1.38 µM |  | CN(C)CCOc1c2nc(-c3ccccc3)[nH]c2cc2[nH]c3ccccc3c12 [SS20308-0122-01, N,N-dimethyl-2-(2-phenyl-3,5-dihydroimidazo[4,5-b]carbazol-10-yloxy)ethanamine]
 | 0.04 µM |  | 0.04 µM | 0.04 µM | CN(C)C/C=C\c1c2[nH]c3ccccc3c2cc2[nH]c3ccccc3c12 [SS20308-0126-01, (Z)-3-(5,11-dihydroindolo[3,2-b]carbazol-6-yl)-N,N-dimethylprop-2-en-1-amine]
0.53 µM | 0.72 µM | 0.5 µM |  |  | COc1c2[nH]c(-c3ccccc3)nc2c(F)c2c1[nH]c1ccccc12 [SS20308-0137-01, 10-fluoro-4-methoxy-2-phenyl-3,5-dihydroimidazo[4,5-b]carbazole]
0.35 µM | 1.06 µM | 0.44 µM |  |  | Fc1ccc2[nH]c3c(NCCn4cncn4)c(-c4ccccc4)ccc3c2c1 [SS20308-0154-01, N-(2-(1H-1,2,4-triazol-1-yl)ethyl)-6-fluoro-2-phenyl-9H-carbazol-1-amine]
3.16 µM | 3.75 µM | 1.55 µM |  |  | c1ccc(NC2CCc3[nH]c4ccccc4c3C2)cc1 (stereo not drawn) [SS20308-0158-01, N-phenyl-2,3,4,9-tetrahydro-1H-carbazol-3-amine]
2.75 µM | 1.85 µM | 1.59 µM |  |  | CN(C)CCCn1c2c(c3ccccc31)CC(Nc1ccccc1)CC2 (stereo not drawn) [SS20308-0159-01, 9-(3-(dimethylamino)propyl)-N-phenyl-2,3,4,9-tetrahydro-1H-carbazol-3-amine]
2.17 µM | 4.38 µM | 1.53 µM |  |  | CN(C)CCCc1cc(-c2cccc3c2NCC3)cc2[nH]c3ccccc3c12 [SS20308-0170-01, 3-(2-(indolin-7-yl)-9H-carbazol-4-yl)-N,N-dimethylpropan-1-amine]
0.03 µM and 0.08 µM | 0.44 µM and 0.81 µM | 0.39 µM and 0.51 µM |  |  | c1ccc2c(c1)[nH]c1cc3c(cc12)CCN3CCn1cncn1 [SS20308-0180-01, 1-(2-(1H-1,2,4-triazol-1-yl)ethyl)-1,2,3,9-tetrahydropyrrolo[2,3-b]carbazole]
0.31 µM | 0.77 µM |  | 1.4 µM |  | CN(CCn1cncn1)c1cc2c(cc1-c1ccccc1)[nH]c1ccc(F)cc12 [SS20308-0182-01, N-(2-(1H-1,2,4-triazol-1-yl)ethyl)-6-fluoro-N-methyl-2-phenyl-9H-carbazol-3-amine]
50.9 µM | 5.01 µM | 13.1 µM |  |  | CN(C)CCC(c1ccccc1)c1ccc2[nH]c3ccccc3c2c1 (stereo not drawn) [SS20308-0183-01, 3-(9H-carbazol-3-yl)-N,N-dimethyl-3-phenylpropan-1-amino]
0.1 µM | 0.08 µM | 0.05 µM |  |  | CN(C)CC1(COc2c3[nH]c4ccc(F)cc4c3c(F)c3[nH]c4ccc(F)cc4c23)COC1 [SS20308-0185-01, N,N-dimethyl-1-(3-((2,8,12-trifluoro-5,11-dihydroindolo[3,2-b]carbazol-6-yloxy)methyl)oxetan-3-yl)methanamine]
0.03 µM and 0.01 µM | 0.04 µM and 0.01 µM | 0.05 µM and 0.02 µM |  |  | Fc1ccc2[nH]c3cc(-c4ccccc4)c(NCC4(Cn5cncn5)COC4)cc3c2c1 [SS20308-0186-01, N-((3-((1H-1,2,4-triazol-1-yl)methyl)oxetan-3-yl)methyl)-6-fluoro-2-phenyl-9H-carbazol-3-amine]
0.1 µM | 0.59 µM | 1.15 µM |  |  | Fc1ccc2[nH]c3cc4c(c(F)c3c2c1)CCN4CCn1cncn1 [SS20308-0207-01, 1-(2-(1H-1,2,4-triazol-1-yl)ethyl)-4,6-difluoro-1,2,3,9-tetrahydropyrrolo[2,3-b]carbazole]
0.01 µM | 0.2 µM | 0.18 µM |  |  | Fc1ccc2[nH]c3cc4c(cc3c2c1)CCN4CCn1cncn1 [SS20308-0208-01, 1-(2-(1H-1,2,4-triazol-1-yl)ethyl)-6-fluoro-1,2,3,9-tetrahydropyrrolo[2,3-b]carbazole]
0.03 µM | 0.92 µM | 1.12 µM |  |  | CC1(C)CN(CCn2cncn2)c2cc3[nH]c4ccccc4c3cc21 [SS20308-0209-01, 1-(2-(1H-1,2,4-triazol-1-yl)ethyl)-3,3-dimethyl-1,2,3,9-tetrahydropyrrolo[2,3-b] carbazole]
14 µM | 10.9 µM | 4.53 µM |  |  | CN(C)C(=O)CC(c1ccccc1)c1ccc2[nH]c3ccccc3c2c1 (stereo not drawn) [SS20308-0222-01, 3-(9H-carbazol-3-yl)-N,N-dimethyl-3-phenylpropanamide]
0.11 µM | 0.22 µM | 1.12 µM |  |  | c1ccc2c(c1)CCc1ccc(NCCn3cncn3)cc1N2 [SS20308-0224-01, N-(2-(1H-1,2,4-triazol-1-yl)ethyl)-10,11-dihydro-5H-dibenzo[b,f]azepin-3-amine]
